{
  "source": "patent US20250270159A1",
  "about": "“1-(CYCLOBUTANEMETHYLIDENE)-2, 4, 5-TRIMETHOXYBENZENE COMPOUND AND PREPARATION METHOD AND USE THEREOF” (CHENGDU XINRUI TAIKANG TECHNOLOGY CO., LTD., priority 2023, published 2025)",
  "key": {"[1]": {"system": "ischemic stroke induced by the filament technique in rats", "assay": "Long-term ischemic stroke (MCAO), neurological deficit score (mNSS)", "format": "in vivo", "experimental": "(§1) The rats were randomly divided into a sham operation group (Sham group, given a blank emulsion with a volume equal to that of the high-dose CTMB group), a model group (Vehicle group, given a blank emulsion with a volume equal to that of the high-dose CTMB group), a low-dose CTMB group (CTMB-L group, 10 mg/kg), a high-dose CTMB group (CTMB-H group, 20 mg/kg), and an edaravone dexborneol injection concentrated solution group (EDB group, commercially available, 3 mg/kg). 10 rats were included in each group, which were administered by intraperitoneal injection. It should be noted that in the experiment, the mode of administration for rats was intraperitoneal injection, and a ratio of the effective dose of CTMB, the active ingredient in the emulsion injection, to the unit mass of the human body was within a range of 0.2 mg-4.0 mg/kg, which referred to the ratio of the effective dose of CTMB, the active ingredient in the emulsion injection, to the unit mass of the human body during intravenous infusion, which was extrapolated from the effective dose of the rats. Considering the different bioavailability, peak concentration, and peak time of the drug due to different species and different modes of administration, the effective dose of the active ingredient CTMB in the emulsion injection to the unit mass of human body was finally determined to be 0.2 mg-4.0 mg/kg through conversion.\n(§2) The rats were fasted for 12 h before procedure, and the rats were anesthetized with 10% chloral hydrate (350 mg/kg, i.p.). The rats were fixed in the supine position, and the body temperature was maintained at about 37° C. For neck preparation, a median neck incision was made, the muscle and fascia were separated along the inner edge of the sternocleidomastoid muscle to expose the right side, the common carotid artery (CCA), external carotid artery (ECA), and internal carotid artery (ICA) were separated bluntly, and the lines were disposed of proximally in the CCA proximal end, ICA, and ECA for backup. The CCA proximal end and ECA were ligatured, and an arterial clip was used to temporarily close the ICA, then a small hole was poked at a position of CCA having about 4 mm from the bifurcation with a needle. The filament was inserted into the ICA through the CCA, the arterial clipped on ICA was loosened, and the filament was slowly advanced. When the mark on the filament reached the bifurcation and a slight resistance was felt, the thin wire at ICA was tightened, and saline was used to clean the wound and then suture was performed. The sham procedure was the same as the experimental group except that no filament was inserted. After anesthesia, the rats were raised normally.\nExperimental materials, groups (n=10-15), modeling manner, and scoring criteria were the same as the acute phase of treatment. After 2 h of modeling by the filament technique, the drugs were immediately administered according to the grouped administration plan, and thereafter the drugs continued to be administered once a day for 14 days, and modified mNSS score was performed on days 1, 4, 7, and 14."}, "[2]": {"system": "ischemic stroke induced by the filament technique in rats", "assay": "Long-term ischemic stroke (MCAO), bonding (adhesive tape) test", "format": "in vivo", "conditions": "for Time for rats to perceive tape, Day 1 / Time for rats to perceive tape, Day 4 / Time for rats to perceive tape, Day 7 / Time for rats to perceive tape, Day 10 / Time for rats to perceive tape, Day 14 / Time of removing tape, Day 1 / Time of removing tape, Day 4 / Time of removing tape, Day 7 / Time of removing tape, Day 10 / Time of removing tape, Day 14: cut-off 60 s", "experimental": "as §1, §2\nRats were trained in adhesion experiments for one week before modeling, and those that could successfully tear off the tape within 10 s were screened for modeling. After 2 h of modeling by the filament technique, the rats were immediately administered with the drug according to the grouped administration plan. Thereafter, the rats were continued to be administered with the drug once a day for 14 days, and adhesion experiments were performed on days 1, 4, 7, 10, and 14 to assess sensory and motor nerve function. The specific operation was as follows. A circular tape with a diameter of about 12 mm was adhered to the plantar surface of the left forelimb of the rat, and the sensation and removal time of the tape was recorded. If the mice were unable to perceive and/or remove the tape within 60 s, 60 s were recorded."}, "[3]": {"system": "superoxide dismutase (SOD)", "assay": "SOD activity in striatum of PD mice", "format": "in vivo, C57 mice", "conditions": "Group D, CTMB 20 mg/kg ip, after 4 weeks, injured side", "experimental": "The mice were randomly divided into a sham operation group (group S, given a blank emulsion with a volume equal to that of the administered group), a model group (group M, given a blank emulsion with a volume equal to that of the administered group), a CTMB group (20 mg/kg, group D), and a levodopa group (levodopa: benserazide hydrochloride=4:1, 12 mg/kg, group L), each group included 10-12 mice, and all of them were administered intraperitoneally.\nMalondialdehyde (MDA) is a commonly used indicator of membrane lipid peroxidation, reduced glutathione (GSH) is one of the most commonly used non-enzymatic indicators of antioxidant substances, and superoxide dismutase (SOD) is a common indicator of antioxidant enzymes. After completing the evaluation of motor function after 4 weeks of drug administration, the mice were deeply anesthetized and perfused with 20 mL of saline via the heart. The brain was rapidly severed to isolate the striatal region on the injured side (right side), weighed, and placed into a 1.5 mL EP tube, and homogenized at low temperature by adding phosphate-buffered saline (PBS) at the ratio of a weight of animal tissues (g) to a volume of homogenization medium (mL) of 1:9. […]"}, "[4]": {"conditions": "CTMB-H 20 mg/kg ip once a day for 14 days"}, "[5]": {"conditions": "CTMB-L 10 mg/kg ip once a day for 14 days"}},
  "data": [
    {"smiles": "COc1cc(OC)c(OC)cc1C=C1CCC1", "note": "[CTMB, 1-(cyclobutylidenemethyl)-2,4,5-trimethoxybenzene]", "values": [
      {"measurement": "toxic side effects associated with administration", "setting": "[1]; 10 and 20 mg/kg ip once a day for 14 days", "result": "No toxic side effects"},
      {"measurement": "mNSS score, Day 1", "setting": "[1]; [4]", "result": "5.69 ± 2.13^##, **"},
      {"measurement": "mNSS score, Day 4", "setting": "[1]; [4]", "result": "3.75 ± 1.67^##, **"},
      {"measurement": "mNSS score, Day 7", "setting": "[1]; [4]", "result": "2.83 ± 1.17^##, *"},
      {"measurement": "mNSS score, Day 14", "setting": "[1]; [4]", "result": "2.45 ± 1.36^##, *"},
      {"measurement": "mNSS score, Day 1", "setting": "[1]; [5]", "result": "6.45 ± 2.37^##, *"},
      {"measurement": "mNSS score, Day 4", "setting": "[1]; [5]", "result": "3.65 ± 1.29^##, **"},
      {"measurement": "mNSS score, Day 7", "setting": "[1]; [5]", "result": "3.38 ± 0.83"},
      {"measurement": "mNSS score, Day 14", "setting": "[1]; [5]", "result": "2.94 ± 1.56"},
      {"measurement": "toxic side effects associated with administration", "setting": "[2]; 10 and 20 mg/kg ip once a day for 14 days, bonding test", "result": "No toxic side effects"},
      {"measurement": "Time for rats to perceive tape, Day 1", "setting": "[2]; CTMB-H 20 mg/kg ip once a day", "result": "31.17 ± 24.57^#^ s"},
      {"measurement": "Time for rats to perceive tape, Day 4", "setting": "[2]; CTMB-H 20 mg/kg ip once a day", "result": "25.33 ± 23.41^#^ s"},
      {"measurement": "Time for rats to perceive tape, Day 7", "setting": "[2]; CTMB-H 20 mg/kg ip once a day", "result": "20.50 ± 22.99^#^ s"},
      {"measurement": "Time for rats to perceive tape, Day 10", "setting": "[2]; CTMB-H 20 mg/kg ip once a day", "result": "7.00 ± 4.56", "unit": "s"},
      {"measurement": "Time for rats to perceive tape, Day 14", "setting": "[2]; CTMB-H 20 mg/kg ip once a day", "result": "8.44 ± 11.94", "unit": "s"},
      {"measurement": "Time of removing tape, Day 1", "setting": "[2]; CTMB-H 20 mg/kg ip once a day", "result": "53.67 ± 16.66", "unit": "s"},
      {"measurement": "Time of removing tape, Day 4", "setting": "[2]; CTMB-H 20 mg/kg ip once a day", "result": "51.33 ± 17.14", "unit": "s"},
      {"measurement": "Time of removing tape, Day 7", "setting": "[2]; CTMB-H 20 mg/kg ip once a day", "result": "48.67 ± 16.55", "unit": "s"},
      {"measurement": "Time of removing tape, Day 10", "setting": "[2]; CTMB-H 20 mg/kg ip once a day", "result": "31.11 ± 19.76", "unit": "s"},
      {"measurement": "Time of removing tape, Day 14", "setting": "[2]; CTMB-H 20 mg/kg ip once a day", "result": "33.22 ± 23.03", "unit": "s"},
      {"measurement": "Time for rats to perceive tape, Day 1", "setting": "[2]; CTMB-L 10 mg/kg ip once a day", "result": "42.25 ± 25.53", "unit": "s"},
      {"measurement": "Time for rats to perceive tape, Day 4", "setting": "[2]; CTMB-L 10 mg/kg ip once a day", "result": "27.50 ± 28.05", "unit": "s"},
      {"measurement": "Time for rats to perceive tape, Day 7", "setting": "[2]; CTMB-L 10 mg/kg ip once a day", "result": "28.20 ± 28.97^#^ s"},
      {"measurement": "Time for rats to perceive tape, Day 10", "setting": "[2]; CTMB-L 10 mg/kg ip once a day", "result": "27.11 ± 30.06", "unit": "s"},
      {"measurement": "Time for rats to perceive tape, Day 14", "setting": "[2]; CTMB-L 10 mg/kg ip once a day", "result": "10.44 ± 12.44", "unit": "s"},
      {"measurement": "Time of removing tape, Day 1", "setting": "[2]; CTMB-L 10 mg/kg ip once a day", "result": "50.75 ± 17.65", "unit": "s"},
      {"measurement": "Time of removing tape, Day 4", "setting": "[2]; CTMB-L 10 mg/kg ip once a day", "result": "36.20 ± 24.17", "unit": "s"},
      {"measurement": "Time of removing tape, Day 7", "setting": "[2]; CTMB-L 10 mg/kg ip once a day", "result": "38.60 ± 26.15^#, * s"},
      {"measurement": "Time of removing tape, Day 10", "setting": "[2]; CTMB-L 10 mg/kg ip once a day", "result": "26.63 ± 27.80", "unit": "s"},
      {"measurement": "Time of removing tape, Day 14", "setting": "[2]; CTMB-L 10 mg/kg ip once a day", "result": "26.22 ± 21.48", "unit": "s"},
      {"measurement": "SOD", "setting": "[3]", "result": "80.24 ± 10.46", "unit": "U/mg protein"}
    ]}
  ]
}
